Results as given in US10358435B2, “Triazolyl pyrimidinone compounds as PDE2 inhibitors” (Merck Sharp & Dohme Corp., priority 2015, dated 2019).

Target: human PDE2A1 (Homo sapiens (Human), UniProt O00408)
Experiment: IMAP fluorescence polarization assay, human PDE2A1 (PDE selectivity panel)
Type: biochemical
Details: for Ki: FAM cAMP 50 nM with 1000 nM cGMP
Description: The activity of the compounds in accordance with the present invention as PDE2 inhibitors may be readily determined using a fluorescence polarization (FP) methodology (Huang, W., et al., J. Biomol Screen, 2002, 7: 215).
Dose-inhibition profiles for each compound were characterized by fitting the mP data to a four-parameter equation given below.
Selectivity for PDE2, as compared to other PDE families, was assessed using the IMAP® technology. Human PDE10A2 enzyme was prepared from cytosolic fractions of transiently transfected HEK cells. All other PDE's were GST Tag human enzyme expressed in insect cells and were obtained from BPS Bioscience (San Diego, Calif.): PDE1A (Cat#60010), human PDE2A1 (Cat#60020), PDE3A (Cat#60030), PDE4A1A (Cat#60040), PDE5A1 (Cat#60050), PDE6C (Cat#60060), PDE7A (Cat#60070), PDE8A1 (Cat#60080), PDE9A2 (Cat#60090), PDE11A4 (Cat#60110).
Assays for PDE 1 through 11 were performed in parallel at room temperature in 384-well microtiter plates with an incubation volume of 20.2 μL. Solutions of test compounds were prepared in DMSO and serially diluted with DMSO to yield 30 μL of each of ten solutions differing by 3-fold in concentration, at 32 serial dilutions per plate. […] A Labcyte POD 810 (Labcyte, Sunnyvale, Calif.) was used to dispense 200 nL from each well of the titration plate to make eleven copies of the assay plate for each titration, one copy for each PDE enzyme. A solution of each enzyme (dilution from aliquots, sufficient to produce 20% substrate conversion) and a separate solution of FAM-labeled cAMP or FAM-labeled cGMP from Molecular Devices (Sunnyvale, Calif., product # R7506 or cGMP#R7508), at a final concentration of 50 nM were made in the assay buffer (10 mM Tris HCl, pH 7.2, 10 mM MgCl2, 0.05% NaN3 0.01% Tween-20, and 1 mM DTT). Note that the substrate for PDE2 is 50 nM FAM cAMP containing 1000 nM of cGMP. The enzyme and the substrate were then added to the assay plates in two consecutive additions of 10 μL and then shaken to mix. The reaction was allowed to proceed at room temperature for 60 minutes. A binding solution was then made from the kit components, comprised of 80% Solution A, 20% Solution B and binding reagent at a volume of 1/600 the total binding solution. The enzymatic reaction was stopped by addition of 60 μL of the binding solution to each well of the assay plate. The plates were sealed and shaken for 10 seconds. The plates were incubated at room temperature for one hour, then the parallel and perpendicular fluorescence was measured using a Tecan Genios Pro plate reader (Tecan, Switzerland). The apparent inhibition constants for the compounds against all 11 PDE's was determined from the parallel and perpendicular fluorescent readings as described for PDE10 FP assay using the following apparent KM values for each enzyme and substrate combination: PDE1A (FAM cGMP) 70 nM, human PDE2A1 (FAM cAMP) 10,000 nM, PDE3A (FAM cAMP) 50 nM, PDE4A1A (FAM cAMP) 1500 nM, PDE5A1 (FAM cGMP) 400 nM, PDE6C (FAM cGMP) 700 nM, PDE7A (FAM cAMP) 150 nM, PDE8A1 (FAM cAMP) 50 nM, PDE9A2 (FAM cGMP) 60 nM, PDE10A2 (FAM cAMP) 150 nM, PDE11A4 (FAM cAMP) 1000 nM. The intrinsic PDE2 inhibitory activity of a compound which may be used in accordance with the present invention may be determined by these assays.

Sequence of human PDE2A1 (O00408 other isoform, or with tags, fused parts or gaps): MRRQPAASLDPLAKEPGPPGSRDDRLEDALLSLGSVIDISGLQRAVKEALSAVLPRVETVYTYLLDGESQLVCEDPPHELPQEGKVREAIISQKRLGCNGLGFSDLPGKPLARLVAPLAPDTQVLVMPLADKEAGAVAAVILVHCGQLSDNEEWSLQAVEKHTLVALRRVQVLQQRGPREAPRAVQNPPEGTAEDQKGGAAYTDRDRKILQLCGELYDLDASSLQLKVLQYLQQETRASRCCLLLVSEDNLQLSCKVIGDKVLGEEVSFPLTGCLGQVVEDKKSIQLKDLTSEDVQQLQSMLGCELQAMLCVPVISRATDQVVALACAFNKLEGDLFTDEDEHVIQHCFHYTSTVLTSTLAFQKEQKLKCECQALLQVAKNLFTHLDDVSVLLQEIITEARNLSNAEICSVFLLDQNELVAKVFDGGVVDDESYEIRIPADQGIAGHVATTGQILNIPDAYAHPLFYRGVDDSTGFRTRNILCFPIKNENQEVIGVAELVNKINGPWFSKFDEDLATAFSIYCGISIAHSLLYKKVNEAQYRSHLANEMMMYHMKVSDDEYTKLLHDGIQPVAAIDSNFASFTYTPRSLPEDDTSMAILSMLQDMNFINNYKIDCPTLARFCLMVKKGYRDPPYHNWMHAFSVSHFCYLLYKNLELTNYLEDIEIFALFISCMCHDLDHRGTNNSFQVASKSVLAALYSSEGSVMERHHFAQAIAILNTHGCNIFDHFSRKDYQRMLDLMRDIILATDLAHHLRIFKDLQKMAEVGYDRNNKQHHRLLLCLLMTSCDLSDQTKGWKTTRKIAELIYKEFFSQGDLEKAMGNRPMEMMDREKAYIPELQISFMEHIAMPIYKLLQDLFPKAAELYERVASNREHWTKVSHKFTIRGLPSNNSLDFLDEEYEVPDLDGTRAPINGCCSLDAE

Compound | Ki [nM] | inhibition at 3 µM [%]
CCCCc1c(-c2cc(=O)[nH]c(C)n2)nnn1C(C)c1ccc(C(F)(F)F)cc1Cl (single isomer, unassigned) [Example 46, (S)- or (R)-6-(5-butyl-1-(1-(2-chloro-4-(trifluoromethyl)phenyl)ethyl)-1H-1,2,3-triazol-4-yl)-2-methylpyrimidin-4(3H)-one] | 1100 | 
Cc1nc(-c2nnn3c2CCC[C@H]3c2ccc(C(F)(F)F)cc2)cc(=O)[nH]1 (mixture of isomers) [Example 47, (R)- and (S)-2-Methyl-6-(7-(4-(trifluoromethyl)phenyl)-4,5,6,7-tetrahydro-[1,2,3]triazolo[1,5-a]pyridin-3-yl)pyrimidin-4(3H)-one] |  | 48
Cc1nc(-c2cnn([C@H](C)c3ccc(C(F)(F)F)cc3Cl)n2)cc(=O)[nH]1 (single isomer, unassigned) [Example 2] | ~1300 | 
Cc1nc(-c2nnn3c2COCC3c2ccc(C(F)(F)F)cc2)cc(=O)[nH]1 (stereo not drawn) [Example 53, 2-methyl-6-(7-(4-(trifluoromethyl)phenyl)-6,7-dihydro-4H-[1,2,3]triazolo[5,1-c][1,4]oxazin-3-yl)pyrimidin-4(3H)-one] | 73.2 | 
Cc1nc(-c2cn(C(C)c3cc(F)c(C(F)(F)F)cc3F)nn2)cc(=O)[nH]1 (single isomer, unassigned) [Example 23, (R)- or (S)-6-(1-(1-(2,5-difluoro-4-(triufluoromethyl)phenyl)ethyl)-1H-1,2,3-triazol-4-yl)-2-methylpyrimidin-4(3H)-one] | 203 | 
Cc1nc(-c2cn(C(C)c3cc(F)c(C(F)(F)F)cc3F)nn2)cc(=O)[nH]1 (single isomer, unassigned) [Example 24, (S)- or (R)-6-(1-(1-(2,5-difluoro-4-(triufluoromethyl)phenyl)ethyl)-1H-1,2,3-triazol-4-yl)-2-methylpyrimidin-4(3H)-one] | 38.8 | 
Cc1nc(-c2nnn3c2CCCC3(C)c2ccc(C(F)(F)F)cc2F)cc(=O)[nH]1 (single isomer, unassigned) [Example 58, (R)- or (S)-6-(7-(2-fluoro-4-(trifluoromethyl)phenyl)-7-methyl-4,5,6,7-tetrahydro-[1,2,3]triazolo[1,5-a]pyridin-3-yl)-2-methylpyrimidin-4(3H)-one] | 1.3 | 
CCc1ccc(C(C)n2ncc(-c3cc(=O)[nH]c(C)n3)n2)c(Cl)c1 (single isomer, unassigned) [Example 7, (R)- or (S)-6-(2-(1-(2-chloro-4-ethylphenyl)ethyl)-2H-1,2,3-triazol-4-yl)-2-methylpyrimidin-4(3H)-one] | 60.9 | 
Cc1nc(-c2cn(C(C)c3ccc(C4CC4)cc3Cl)nn2)cc(=O)[nH]1 (single isomer, unassigned) [Example 26, (S)- or (R)-6-(1-(1-(2-chloro-4-cyclopropylphenyl)ethyl)-1H-1,2,3-triazol-4-yl)-2-methylpyrimidin-4(3H)-one] | 3.2 | 
CCCCc1c(-c2cc(=O)[nH]c(C)n2)nnn1C(C)c1ccc(C(F)(F)F)cc1Cl (single isomer, unassigned) [Example 45, (R)- or (S)-6-(5-butyl-1-(1-(2-chloro-4-(trifluoromethyl)phenyl)ethyl)-1H-1,2,3-triazol-4-yl)-2-methylpyrimidin-4(3H)-one] | 9.2 | 
Cc1nc(-c2cn([C@@H](C)c3ccc(C(F)(F)F)cc3Cl)nn2)cc(=O)[nH]1 (single isomer, unassigned) [Example 36] | 1.7 | 
Cc1nc(-c2cn(C(c3ccc(C(F)(F)F)cc3F)C(C)C)nn2)cc(=O)[nH]1 (single isomer, unassigned) [Example 39, (R)- or (S)-6-(1-(1-(2-fluoro-4-(trifluoromethyl)phenyl)-2-methylpropyl)-1H-1,2,3-triazol-4-yl)-2-methylpyrimidin-4(3H)-one] | 7.2 | 
Cc1nc(-c2cn(C(c3ccc(C(F)(F)F)cc3F)C3CC3)nn2)cc(=O)[nH]1 (single isomer, unassigned) [Example 41] | 38 | 
Cc1nc(-c2cn(C(c3ccc(C(F)(F)F)cc3F)C(C)C)nn2)cc(=O)[nH]1 (single isomer, unassigned) [Example 40, (S)- or (R)-6-(1-(1-(2-fluoro-4-(trifluoromethyl)phenyl)-2-methylpropyl)-1H-1,2,3-triazol-4-yl)-2-methylpyrimidin-4(3H)-one] | 22.6 | 

Next, values leading:

Ki [nM] | inhibition at 3 µM [%] | Compound
7.7 |  | Cc1nc(-c2nnc(C(C)c3ccc(C(F)(F)F)cc3Cl)n2C)cc(=O)[nH]1 (single isomer, unassigned) [Example 68, (S)- or (R)-6-(5-(1-(2-chloro-4-(trifluoromethyl)-phenyl)ethyl)-4-methyl-4H-1,2,4-triazol-3-yl)-2-methylpyrimidin-4(3H)-one]
218 |  | Cc1nc(-c2nnn3c2CCC3(C)c2ccc(C(F)(F)F)cc2F)cc(=O)[nH]1 (single isomer, unassigned) [Example 98, (S)- or (R)-6-(6-(2-Fluoro-4-(trifluoromethyl)phenyl)-6-methyl-5,6-dihydro-4H-pyrolo[1,2-c][1,2,3]triazol-3-yl)-2-methylpyrimidin-4(3H)-one]
52.7 |  | Cc1nc(-c2nnc(C(C)c3ccc(C(F)(F)F)cc3F)[nH]2)cc(=O)[nH]1 (single isomer, unassigned) [Example 61, (R)- or (S)-6-(5-(1-(2-fluoro-4-(trifluoromethyl)-phenyl)ethyl)-4H-1,2,4-triazol-3-yl)-2-methylpyrimidin-4(3H)-one]
525 |  | Cc1nc(-c2nnc(C(C)c3ccc(C(F)(F)F)cc3Cl)[nH]2)cc(=O)[nH]1 (single isomer, unassigned) [Example 66, (S)- or (R)-6-(5-(1-(2-chloro-4-(trifluoromethyl)-phenyl)ethyl)-4H-1,2,4-triazol-3-yl)-2-methylpyrimidin-4(3H)-one]
 | 27 | Cc1nc(-c2nnc3n2CCC[C@H]3c2ccc(C(F)(F)F)cc2)cc(=O)[nH]1 (mixture of isomers) [Example 71, (R)- and (S)-2-Methyl-6-(8-(4-(trifluoromethyl)phenyl)-5,6,7,8-tetrahydro-[1,2,4]triazolo[4,3-a]pyridin-3-yl)pyrimidin-4(3H)-one]
221 |  | Cc1nc(-n2ncc([C@H](C)c3ccc(C(F)(F)F)cc3Cl)n2)cc(=O)[nH]1 (single isomer, unassigned) [Example 82]
0.42 |  | Cc1nc(-n2cc([C@H](C)c3ccc(C(F)(F)F)cc3Cl)nn2)cc(=O)[nH]1 (single isomer, unassigned) [Example 74]
2800 |  | Cc1nc(-c2nnn3c2CCC[C@]3(C)c2ccc(OC(F)(F)F)cc2)cc(=O)[nH]1 (single isomer, unassigned) [Example 77]
430 |  | CCc1ccc([C@]2(C)CCCc3c(-c4cc(=O)[nH]c(C)n4)nnn32)c(F)c1 (single isomer, unassigned) [Example 96]
54.3 |  | Cc1nc(-c2nnc3n2CCC[C@H]3c2ccc(C(F)(F)F)cc2)cc(=O)[nH]1 (single isomer, unassigned) [Example 70]
1900 |  | COc1ccc(Cc2nc(-c3nnn4c3CCC[C@]4(C)c3ccc(C(F)(F)F)cc3F)cc(=O)[nH]2)cc1 (single isomer, unassigned) [Example 90]
224 |  | Cc1nc(-n2cnc([C@H](C)c3ccc(C(F)(F)F)cc3F)n2)cc(=O)[nH]1 (single isomer, unassigned) [Example 84]
1200 |  | Cc1nc(-n2cnc([C@H](C)c3ccc(C(F)(F)F)cc3F)n2)cc(=O)[nH]1 (single isomer, unassigned) [Example 85]
